The source of these data is ChEMBL document CHEMBL3102783, “Structural studies, homology modeling and molecular docking of novel non-competitive antagonists of GluK1/GluK2 receptors” (Bioorg Med Chem, 2014).

The target in assay [1] is T1, Glutamate receptor ionotropic, kainate 1 (Homo sapiens, UniProt P39086). Description: Displacement of [3H]-kainate from GluK1 receptor (unknown origin).
The target in assay [2] is T2, Glutamate receptor ionotropic, kainate 2 (Homo sapiens, UniProt Q13002). Description: Displacement of [3H]-kainate from GluK2 receptor (unknown origin). A general note: In a radioligand displacement assay an active substance lowers the binding of a labelled ligand.
T2 sequence (Q13002 whole entry): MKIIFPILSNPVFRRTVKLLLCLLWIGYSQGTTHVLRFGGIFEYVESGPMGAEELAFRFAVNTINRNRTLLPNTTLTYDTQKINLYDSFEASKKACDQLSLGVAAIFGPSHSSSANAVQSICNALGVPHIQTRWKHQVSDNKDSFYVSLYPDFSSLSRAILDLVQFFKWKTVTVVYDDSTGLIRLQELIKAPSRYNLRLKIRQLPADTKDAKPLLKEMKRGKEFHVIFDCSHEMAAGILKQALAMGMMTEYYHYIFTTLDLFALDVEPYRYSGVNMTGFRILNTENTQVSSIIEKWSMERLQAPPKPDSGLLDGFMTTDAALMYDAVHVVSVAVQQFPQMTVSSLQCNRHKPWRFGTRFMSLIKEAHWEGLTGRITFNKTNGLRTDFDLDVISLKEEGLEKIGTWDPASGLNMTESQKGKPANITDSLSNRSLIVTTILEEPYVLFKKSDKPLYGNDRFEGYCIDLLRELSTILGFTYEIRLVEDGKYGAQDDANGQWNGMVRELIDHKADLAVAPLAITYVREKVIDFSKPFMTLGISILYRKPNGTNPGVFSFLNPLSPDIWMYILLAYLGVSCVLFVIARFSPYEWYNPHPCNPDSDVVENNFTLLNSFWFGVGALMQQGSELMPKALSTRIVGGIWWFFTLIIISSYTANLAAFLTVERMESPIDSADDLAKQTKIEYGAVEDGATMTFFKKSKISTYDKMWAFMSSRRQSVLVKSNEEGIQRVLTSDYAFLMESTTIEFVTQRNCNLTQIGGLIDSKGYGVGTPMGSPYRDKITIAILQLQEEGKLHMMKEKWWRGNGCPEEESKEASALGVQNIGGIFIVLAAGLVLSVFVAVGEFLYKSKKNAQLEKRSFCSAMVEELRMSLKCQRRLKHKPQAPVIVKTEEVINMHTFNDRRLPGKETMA
For assay [3], the target named is T1, Glutamate receptor ionotropic, kainate 1. Description: Displacement of [3H]-kainate from GluK1 receptor (unknown origin) at 100 uM.
For assay [4], the target named is T2, Glutamate receptor ionotropic, kainate 2. Description: Displacement of [3H]-kainate from GluK2 receptor (unknown origin) at 100 uM.

T1 sequence (P39086 whole entry): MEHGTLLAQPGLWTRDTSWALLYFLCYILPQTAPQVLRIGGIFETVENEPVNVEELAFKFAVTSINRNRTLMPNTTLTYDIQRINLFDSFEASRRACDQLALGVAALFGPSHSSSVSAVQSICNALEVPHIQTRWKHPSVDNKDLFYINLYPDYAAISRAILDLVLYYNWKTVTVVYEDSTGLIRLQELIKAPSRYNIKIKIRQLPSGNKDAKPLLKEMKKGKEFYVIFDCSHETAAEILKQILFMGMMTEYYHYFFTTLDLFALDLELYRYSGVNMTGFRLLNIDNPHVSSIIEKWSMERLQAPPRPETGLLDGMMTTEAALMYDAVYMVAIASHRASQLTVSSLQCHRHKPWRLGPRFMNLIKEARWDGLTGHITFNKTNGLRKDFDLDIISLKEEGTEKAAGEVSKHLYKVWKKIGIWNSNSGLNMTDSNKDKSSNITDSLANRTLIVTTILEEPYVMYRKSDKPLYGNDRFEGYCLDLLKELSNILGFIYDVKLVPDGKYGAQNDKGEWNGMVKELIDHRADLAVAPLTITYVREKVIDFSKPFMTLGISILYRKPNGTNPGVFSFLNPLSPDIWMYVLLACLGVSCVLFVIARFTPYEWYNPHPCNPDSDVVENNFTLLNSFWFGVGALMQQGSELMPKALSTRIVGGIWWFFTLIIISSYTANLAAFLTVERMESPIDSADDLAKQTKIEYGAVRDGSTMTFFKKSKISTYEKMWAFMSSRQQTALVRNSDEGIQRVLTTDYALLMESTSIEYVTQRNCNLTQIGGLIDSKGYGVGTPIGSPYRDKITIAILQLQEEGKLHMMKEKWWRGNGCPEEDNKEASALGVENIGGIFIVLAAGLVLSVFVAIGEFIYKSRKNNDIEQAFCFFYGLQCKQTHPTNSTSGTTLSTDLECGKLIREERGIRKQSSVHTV

For the compound `CCn1c(-c2ccc(OC)cc2)c(C)c2cc(OC)ccc21`, the IC50 (as a rule, the point on the concentration scale where inhibition reaches its midpoint) in assay [1] came to 4 µM; in assay [2] it was 0.7 µM.

Turning to `CCn1c(-c2ccccc2)cc2cc(OC)ccc21`, the IC50 stood at 12 µM in assay [1] and 6.7 µM in assay [2].

With `CCn1c(-c2ccccc2)c(C)c2cc(OC)ccc21`, the inhibition – broadly, the relative decrease from the control value, in per cent – in assay [3] turned out to be 32%. For the same compound, the IC50 in assay [2] worked out at 6 µM.

For the compound `COc1ccc(-c2c(C)c3cc(OC)ccc3n2Cc2ccc(Cl)cc2)cc1`, the inhibition in assay [4] is 20%; in assay [3], 0%.

Take `CCn1c(-c2ccc(OC)cc2)c(C)c2ccccc21`: in assay [3], the inhibition was determined as 32%. In assay [2], this compound came in with an IC50 of 10 µM.

`CCn1c2c(c3cc(OC)ccc31)CCc1ccccc1-2`: the inhibition in assay [4] stood at 1%; in assay [3], 0%.
